Test results: PMC9264115, “Pd-catalyzed C–C and C–N cross-coupling reactions in 2-aminothieno[3,2-d]pyrimidin-4(3H)-one series for antiplasmodial pharmacomodulation” (RSC Advances, 2022)
Values belong to the compound of their own block, whether it stands above or below them.

Experiments:
[1] = Cytotoxic evaluation, MTT assay; assay type: cell-based; conditions: HepG2 cells, human HepG2 cell line, three independent experiments
Protocol: The HepG2 cell line was maintained at 37 °C, 5% CO2, at 90% humidity in […] supplemented with 10% fetal bovine serum, 1% L-glutamine (200 mM), and penicillin (100 U per mL)/streptomycin (100 μg mL^−1) (complete RPMI medium). The cytotoxicity of the tested molecules on the HepG2 (hepatocarcinoma cell line purchased from ATCC, ref HB-8065) cell line was assessed according to the method of Mosmann[20] with slight modifications. Briefly, 5 × 10^3 cells in 100 μL of complete medium were inoculated into each well of 96-well plates and incubated at 37 °C in humidified 5% CO2. After 24 h incubation, 100 μL of medium with various product concentrations dissolved in DMSO (final concentration less than 0.5% v/v) were added and the plates were incubated for 72 h at 37 °C. Triplicate assays were performed for each sample. Each plate was then microscopically examined for possible precipitate formation before the medium was aspirated from the wells. Next, 100 μL of MTT (3-(4,5-dimethyl-2-thiazolyl)-2,5-diphenyl-2H-tetrazolium bromide) solution (0.5 mg mL^−1 in medium without FBS) was added to each well. Cells were incubated for 2 h at 37 °C. After this time, the MTT solution was removed and DMSO (100 μL) was added to dissolve the resulting blue formazan crystals. Plates were shaken vigorously (700 rpm) for 10 min. The absorbance was measured at 570 nm with 630 nm as a reference wavelength using a BIO-TEK ELx808 Absorbance Microplate Reader (LabX, Midland, ON, Canada). DMSO was used as a blank and doxorubicin (purchased from Sigma Aldrich) as a positive control. Cell viability was calculated as a percentage of control (cells incubated without the compound). […] CC50 values to represent the mean value calculated from three independent experiments.

[2] = tested on: K1 culture-adapted P. falciparum strain; experiment: Antiplasmodial evaluation, SYBR Green I fluorescence-based drug susceptibility test; assay type: cell-based; conditions: for EC50: Plasmodium falciparum, multi-resistant K1 strain of P. falciparum, 72 h incubation, three independent experiments, read-out: EC50 PfK1; for SI (selectivity index): from CC50 HepG2 and EC50 PfK1
Protocol: […]. Parasitemia was maintained daily between 1 and 3%. The P. falciparum drug susceptibility test was carried out by comparing quantities of DNA in treated and control cultures of parasite in human erythrocytes according to a SYBR Green I fluorescence-based method[19] using a 96-well fluorescence plate reader. Compounds previously dissolved in DMSO (final concentration less than 0.5% v/v) were incubated in a total assay volume of 200 μL (RPMI, 2% hematocrit and 0.4% parasitemia) for 72 h in a humidified atmosphere (10% O2 and 5% CO2) at 37 °C in 96-well flat bottom plates. Duplicate assays were performed for each sample. After incubation, plates were frozen at […] for 24 h. Then, the frozen plates were thawed for 1 h at 37 °C. Fifteen μL of each sample were transferred to 96-well flat bottom non-sterile black plates (Greiner Bio-one, Kremsmünster, Austria), already containing 15 μL of the SYBR Green I lysis buffer (2X SYBR Green I, 20 mM Tris base pH 7.5, 20 mM EDTA, 0.008% w/v saponin, 0.08% w/v Triton X-100). […] Plates were incubated for 15 min at 37 °C and then read on a TECAN Infinite F-200 spectrophotometer with excitation and emission wavelengths at 485 and 535 nm, respectively.

- melting point: 235 to 237 °C
- EC50 [2]: 2.35 ± 0.38 µM
Structure (SMILES): Cc1ccc(C#Cc2cc3nc(NC(C)(C)C)[nH]c(=O)c3s2)cc1 [Compound 2b, 2-tert-Butylamino-6-[(4-methylphenyl)ethynyl]thieno[3,2-d]pyrimidin-4(3H)-one]
- CC50 at 72 h [1]: > 12.5 µM
- SI (selectivity index) [2]: >5.3

- melting point: 277 to 279 °C
- EC50 [2]: 4.6 ± 1 µM
Structure (SMILES): Cc1ccc(C#Cc2cc3nc(NC(C)C)[nH]c(=O)c3s2)cc1 [Compound 2c, 6-[(4-methylphenyl)ethynyl]-2-(propan-2-ylamino)thieno[3,2-d]pyrimidin-4(3H)-one]
- CC50 at 72 h [1]: 3.1 ± 0.6 µM
- SI (selectivity index) [2]: 0.7

- EC50 [2]: > 10 µM
Structure (SMILES): CC(C)(C)Nc1nc2cc(C#CCCO)sc2c(=O)[nH]1 [Compound 2d, 2-tert-Butylamino-6-(4-hydroxybut-1-yn-1-yl)thieno[3,2-d]pyrimidin-4(3H)-one]
- CC50 at 72 h [1]: > 50 µM

- melting point: 158 to 160 °C
- EC50 [2]: 1.9 ± 0.6 µM
Structure (SMILES): CC(C)(C)Nc1nc2cc(C#CC3CC3)sc2c(=O)[nH]1 [Compound 2e, 2-tert-Butylamino-6-(cyclopropylethynyl)thieno[3,2-d]pyrimidin-4(3H)-one]
- CC50 at 72 h [1]: 20.8 ± 1.4 µM
- SI (selectivity index) [2]: 10.9

- EC50 [2]: > 12.5 µM
Structure (SMILES): C#Cc1cc2nc(NC(C)(C)C)[nH]c(=O)c2s1 [Compound 2f, 2-tert-Butylamino-6-ethynylthieno[3,2-d]pyrimidin-4(3H)-one]
- CC50 at 72 h [1]: 4.7 ± 1 µM

- EC50 [2]: > 5 µM
Structure (SMILES): CN1CCN(CC#Cc2cc3nc(NC(C)(C)C)[nH]c(=O)c3s2)CC1 [Compound 2g, 2-tert-Butylamino-6-[3-(4-methylpiperazin-1-yl)prop-1-yn-1-yl]thieno[3,2-d]pyrimidin-4(3H)-one]
- CC50 at 72 h [1]: 41.6 ± 5.2 µM

- melting point: 276 to 278 °C
- EC50 [2]: 2.8 ± 1 µM
Structure (SMILES): CC(C)Nc1nc2cc(C#Cc3ccccc3)sc2c(=O)[nH]1 [Compound 2h, 6-(phenylethynyl)-2-(propan-2-ylamino)thieno[3,2-d]pyrimidin-4(3H)-one]
- CC50 at 72 h [1]: > 12.5 µM
- SI (selectivity index) [2]: >4.5

- melting point: > 300 °C
- EC50 [2]: 2.5 ± 0.9 µM
Structure (SMILES): COC(=O)c1ccc(-c2cc3nc(NC(C)(C)C)[nH]c(=O)c3s2)cc1 [Compound 4a, Methyl-4-(2-tert-butylamino-4-oxo-3,4-dihydrothieno[3,2-d]pyrimidin-6-yl)benzoate]
- CC50 at 72 h [1]: > 12.5 µM
- SI (selectivity index) [2]: >5.0

- melting point: > 300 °C
Structure (SMILES): CC(C)(C)Nc1nc2cc(-c3ccc([N+](=O)[O-])cc3)sc2c(=O)[nH]1 [Compound 4b, 2-tert-Butylamino-6-(4-nitrophenyl)thieno[3,2-d]pyrimidin-4(3H)-one]

- EC50 [2]: 7.5 ± 1 µM
Structure (SMILES): CC(C)(C)Nc1nc2cc(-c3ccc(O)cc3)sc2c(=O)[nH]1 [Compound 4d, 2-(tert-butylamino)-6-(4-hydroxyphenyl)thieno[3,2-d]pyrimidin-4(3H)-one]
- CC50 at 72 h [1]: 12.2 ± 0.3 µM

- melting point: 259 to 261 °C
- EC50 [2]: 2 ± 0.9 µM
Structure (SMILES): CC(C)(C)Nc1nc2cc(-c3ccc(F)c(Cl)c3)sc2c(=O)[nH]1 [Compound 4e, 2-tert-Butylamino-6-(3-chloro-4-fluorophenyl)thieno[3,2-d]pyrimidin-4(3H)-one]
- CC50 at 72 h [1]: > 12.5 µM
- SI (selectivity index) [2]: >6.3

- melting point: > 300 °C
- EC50 [2]: 3.6 ± 1.2 µM
Structure (SMILES): CC(C)Nc1nc2cc(-c3ccc(F)c(Cl)c3)sc2c(=O)[nH]1 [Compound 4f, 2-(Propan-2-ylamino)-6-(3-chloro-4-fluorophenyl)thieno[3,2-d]pyrimidin-4(3H)-one]
- CC50 at 72 h [1]: > 6.25 µM
- SI (selectivity index) [2]: >1.7

- melting point: > 300 °C
- EC50 [2]: 2.4 ± 0.9 µM
Structure (SMILES): CC(C)(C)Nc1nc2cc(-c3ccc(N4CCOCC4)cc3)sc2c(=O)[nH]1 [Compound 4g, 2-tert-Butylamino-6-[4-(morpholin-4-yl)phenyl]thieno[3,2-d]pyrimidin-4(3H)-one]
- CC50 at 72 h [1]: 7.9 ± 1.3 µM
- SI (selectivity index) [2]: 3.3

- EC50 [2]: 4.1 ± 0.7 µM
Structure (SMILES): CN1CCN(c2ccc(-c3cc4nc(NC(C)(C)C)[nH]c(=O)c4s3)cc2)CC1 [Compound 4h, 2-tert-Butylamino-6-[4-(4-methylpiperazin-1-yl)phenyl]thieno[3,2-d]pyrimidin-4(3H)-one]
- CC50 at 72 h [1]: 5.8 ± 0.5 µM

- EC50 [2]: 4.1 ± 1.2 µM
Structure (SMILES): CC(C)(C)Nc1nc2cc(-c3ccc(N4CCCCC4)cc3)sc2c(=O)[nH]1 [Compound 4i, 2-tert-Butylamino-6-[4-(piperidin-1-yl)phenyl]thieno[3,2-d]pyrimidin-4(3H)-one]
- CC50 at 72 h [1]: > 6.25 µM

- EC50 [2]: 3 ± 0.6 µM
Structure (SMILES): CC(C)(C)Nc1nc2cc(-c3ccc(S(C)(=O)=O)cc3)sc2c(=O)[nH]1 [Compound 4k, 2-tert-Butylamino-6-[4-(methylsulfonyl)phenyl]thieno[3,2-d]pyrimidin-4(3H)-one]
- CC50 at 72 h [1]: > 25 µM

- EC50 [2]: 6 ± 1.1 µM
Structure (SMILES): CC(C)Nc1nc2cc(-c3ccc(N)cc3)sc2c(=O)[nH]1 [Compound 4q, 6-(4-aminophenyl)-2-(propan-2-ylamino)thieno[3,2-d]pyrimidin-4(3H)-one]
- CC50 at 72 h [1]: 11.3 ± 3.5 µM

More lines, now with the values behind:

Structure (SMILES): CC(C)(C)Nc1nc2cc(Br)sc2c(=O)[nH]1 [Compound 1, 6-Bromo-2-(tert-butylamino)thieno[3,2-d]pyrimidin-4(3H)-one]
- CC50 at 72 h [1]: 38.2 ± 3.5 µM
- EC50 [2]: 43.2 ± 2.6 µM
- SI (selectivity index) [2]: 0.9

Structure (SMILES): Cc1ccc(Nc2cc3nc(NC(C)(C)C)[nH]c(=O)c3s2)cc1 [Compound 1a, 2-tert-Butylamino-6-[(4-methylphenyl)amino]thieno[3,2-d]pyrimidin-4(3H)-one]
- CC50 at 72 h [1]: 21.7 ± 2.1 µM
- EC50 [2]: 10.3 ± 0.2 µM

Structure (SMILES): Cc1cccc(Nc2cc3nc(NC(C)(C)C)[nH]c(=O)c3s2)c1 [Compound 1b, 2-tert-Butylamino-6-[(3-methylphenyl)amino]thieno[3,2-d]pyrimidin-4(3H)-one]
- CC50 at 72 h [1]: 5.3 ± 0.4 µM
- EC50 [2]: 1.1 ± 0.3 µM

Structure (SMILES): Cc1ccccc1Nc1cc2nc(NC(C)(C)C)[nH]c(=O)c2s1 [Compound 1c, 2-tert-Butylamino-6-[(2-methylphenyl)amino]thieno[3,2-d]pyrimidin-4(3H)-one]
- CC50 at 72 h [1]: 14.1 ± 0.3 µM
- EC50 [2]: 4.3 ± 0.2 µM

Structure (SMILES): COc1ccc(Nc2cc3nc(NC(C)(C)C)[nH]c(=O)c3s2)cc1 [Compound 1d, 2-tert-Butylamino-6-[(4-methoxyphenyl)amino]thieno[3,2-d]pyrimidin-4(3H)-one]
- melting point: 205 to 207 °C
- CC50 at 72 h [1]: 24 ± 3.1 µM
- EC50 [2]: 7.2 ± 2 µM
- SI (selectivity index) [2]: 3.3

Structure (SMILES): CC(C)(C)Nc1nc2cc(Nc3ccc(F)cc3)sc2c(=O)[nH]1 [Compound 1e, 2-tert-Butylamino-6-[(4-fluorophenyl)amino]thieno[3,2-d]pyrimidin-4(3H)-one]
- melting point: 195 to 197 °C
- CC50 at 72 h [1]: 21.3 ± 1.6 µM
- EC50 [2]: 7.1 ± 1.4 µM
- SI (selectivity index) [2]: 3.0

Structure (SMILES): CC(C)(C)Nc1nc2cc(N3CCOCC3)sc2c(=O)[nH]1 [Compound 1f, 2-tert-Butylamino-6-(morpholin-4-yl)thieno[3,2-d]pyrimidin-4(3H)-one]
- melting point: 264 to 266 °C
- CC50 at 72 h [1]: > 50 µM
- EC50 [2]: 4.5 ± 1.1 µM
- SI (selectivity index) [2]: >11.1

Structure (SMILES): CC(C)Nc1nc2cc(Br)sc2c(=O)[nH]1 [Compound 3, 6-Bromo-2-(propan-2-ylamino)thieno[3,2-d]pyrimidin-4(3H)-one]
- melting point: 240 to 242 °C
- CC50 at 72 h [1]: 89.1 ± 9.7 µM
- EC50 [2]: > 50 µM
- SI (selectivity index) [2]: <1.8
